Consider 25 molecules from ChEMBL document CHEMBL1144852, “Optimization of a dihydropyrrolopyrazole series of transforming growth factor-beta type I receptor kinase domain inhibitors: discovery of an orally bioavailable transforming growth factor-beta receptor type I inhibitor as antitumor agent” (J Med Chem, 2008).

Where only a bound is given, the exact number is not on record here.

In series [1] the target is TGF-beta receptor type-1 (Homo sapiens, UniProt P36897, T204D). As to the kind of experiment: Inhibition of TGFbeta type receptor 1 ALK5 (T204D) expressed in Sf9 cells.
Series [2] in a line: Antiproliferative activity against mink Mv1Lu-p3TP-Lux cells by luciferase reporter assay. Format: functional, cell-based, Neovison vison. Particulars: Neogale vison.
For series [3], the system named is NIH3T3. As to the kind of experiment: Antiproliferative activity against mouse NIH3T3 cells by [3H]thymidine assay. Format: functional, cell-based.
Series [4] relates to Caco-2. As to the kind of experiment: Permeability from apical to basolateral side of human Caco-2 cell membrane. Format: ADME, cell-based. On the technique in general: Passage across Caco-2 layers is used to estimate intestinal permeability.
Series [5] deals with Liver microsomes. As to the kind of experiment: Metabolic stability in human liver microsomes. Further: time not given here. The format is ADME, Microsome.
Series [6] in a line: Metabolic stability in rat microsomes. Further: time not given here. Format: ADME, Microsome.
The test system of series [7] is Mus musculus. Put plainly: Inhibition of TGFbeta type receptor 1 in orally dosed human Calu6 cells xenografted mouse by IVTI […] assay. Particulars: Calu-6. The format is functional, organism-based. Background: Xenograft models place foreign cells or tissue in a host animal.
Series [8] concerns Mus musculus. Put plainly: Inhibition of TGFbeta type receptor 1 in human Calu6 cells xenografted mouse at 50 mg/kg, po by single point IVTI assay. Format: functional, Calu-6. On the set-up: scale not given: the % may be the effect or the level left.

Usually IC50 stands for the concentration that inhibits the measured activity by half. By EC50 is commonly meant the concentration that produces a half-maximal response.

As for `COC(=O)c1ccc2nccc(-c3c(-c4cccc(C)n4)nn4c3CCC4)c2c1`, the IC50 was 0.526 µM in series [1] and 0.403 µM in series [2].
`Oc1ccc2c(-c3c(-c4ccccn4)nn4c3CCC4)ccnc2c1`: the figures for the IC50 in series [1], in series [3] and in series [2] were 0.16 µM, 0.42 µM and 0.2 µM, respectively.
As for `COc1cc(-c2c(-c3ccccn3)nn3c2CCC3)c2ccccc2n1`, the IC50 in series [1] was more than 20 µM.
With `c1ccc(-c2n[nH]cc2-c2ccnc3ccccc23)nc1`, the permeability in series [4] was 76%. Also, the Stability in series [5] is 22%; in series [6], 98%. Further, in series [3], inhibition was half-maximal at 0.081 µM (IC50).
Turning to `Cc1cccc(-c2nn3c(c2-c2ccnc4c(F)cccc24)CCC3)n1`, the IC50 in series [1] amounted to 0.928 µM; in series [3], 1.03 µM; in series [2], 0.951 µM.
Molecule `CN1CCN(CCCOc2ccc3c(-c4c(-c5ccccn5)nn5c4CCC5)ccnc3c2)CC1` came in with a permeability in series [4] of 13%. Also, the Stability in series [5] is given as 17%; in series [6], 46%. For the same molecule, the IC50 in series [1] came to 0.074 µM; in series [3] it was 0.092 µM; in series [2], 0.044 µM. The molecule also came in with an EC50 in series [7] of 1.1 µM. The molecule further had an Activity in series [8] of 70%.
Regarding `NC(=O)c1ccc(Oc2ccc3c(-c4c(-c5ccccn5)nn5c4CCC5)ccnc3c2)cc1`, the IC50 in series [1] turned out to be 1.1 µM.
In series [1], `CN(C)Cc1ccc(Oc2ccc3c(-c4c(-c5ccccn5)nn5c4CCC5)ccnc3c2)cc1` registered an IC50 of 0.75 µM.
As to `CN(C)C(=O)c1ccc(Oc2ccc3c(-c4c(-c5ccccn5)nn5c4CCC5)ccnc3c2)cc1`, the results for the IC50 in series [1], in series [3] and in series [2] were 1.1 µM, 5.1 µM and 15 µM, respectively.
`CCN(C)CCOc1ccc2c(-c3c(-c4ccccn4)nn4c3CCC4)ccnc2c1` gave a permeability in series [4] of 27%. The results for the Stability in series [5] and in series [6] were 29% and 57%, respectively. Also, the IC50 in series [1] worked out at 0.085 µM; in series [3], 0.072 µM; in series [2], 0.061 µM. This molecule returned an EC50 in series [7] of 0.343 µM. For the same molecule, in series [8], the Activity is listed as 70%.
`CN1CCN(C(=O)COc2ccc3c(-c4c(-c5ccccn5)nn5c4CCC5)ccnc3c2)CC1`: the IC50 in series [1] amounted to 0.049 µM; in series [3], 0.73 µM; in series [2], 0.26 µM.
For `CN(C)CCCCCOc1ccc2c(-c3c(-c4ccccn4)nn4c3CCC4)ccnc2c1` the same measures were 0.047 µM, 0.051 µM and 0.024 µM.
As for `CCSc1cc(-c2c(-c3ccccn3)nn3c2CCC3)c2ccccc2n1`, the IC50 in series [1] and in series [2] was more than 20 µM in each case.
In the case of `CN1CCN(CCOc2ccc3c(-c4c(-c5ccccn5)nn5c4CCC5)ccnc3c2)CC1`, the IC50 was 0.1 µM in series [1], 0.054 µM in series [3] and 0.038 µM in series [2]. This molecule also showed an EC50 in series [7] of 0.919 µM. The Activity in series [8] amounted to 73%.
As for `Clc1cc(-c2c(-c3ccccn3)nn3c2CCC3)c2ccccc2n1`, the IC50 in series [1] is 19.8 µM; in series [3], more than 20 µM; in series [2], more than 20 µM.
Take `O=C(O)c1ccc(Oc2ccc3c(-c4c(-c5ccccn5)nn5c4CCC5)ccnc3c2)cc1`: the IC50 in series [1] is 4.8 µM; in series [3], more than 20 µM; in series [2] it was more than 20 µM.
As for `c1ccc(-c2nn3c(c2-c2cc(N4CCCC4)nc4ccccc24)CCC3)nc1`, the IC50 in series [1] and in series [2] was more than 20 µM each time.
`Cc1cccc(-c2nn3c(c2-c2ccnc4ccc(OC(F)(F)F)cc24)CCC3)n1`: the results for the IC50 in series [1], in series [3] and in series [2] were 0.141 µM, 0.254 µM and 0.201 µM, respectively.
Turning to `ClCCOc1ccc2c(-c3c(-c4ccccn4)nn4c3CCC4)ccnc2c1`, in series [4], the permeability is listed as 54%. Further, the Stability in series [5] and in series [6] was 99% throughout. For the same molecule, the IC50 in series [1] was 0.033 µM; in series [3], 0.097 µM; in series [2], 0.066 µM.
For `Cc1cccc(-c2nn3c(c2-c2ccnc4ccc(Br)cc24)CCC3)n1`, the values for the IC50 in series [1], in series [3] and in series [2] were 0.089 µM, 0.338 µM and 0.055 µM, respectively.
Take `Cc1cccc(-c2nn3c(c2-c2ccnc4ccc(C(=O)NCCN(C)C)cc24)CCC3)n1`: the results for the IC50 in series [1], in series [3] and in series [2] were 0.193 µM, 2.27 µM and 0.468 µM, respectively.
Turning to `CN1CCCC1CCCOc1ccc2c(-c3c(-c4ccccn4)nn4c3CCC4)ccnc2c1` (stereo not given), the IC50 in series [1] is 0.072 µM; in series [3] it was 0.02 µM; in series [2], 0.017 µM. In series [7], this molecule gave a concentration for a half-maximal effect (EC50) of 0.377 µM. The molecule also had an Activity in series [8] of 75%.
The molecule `N#Cc1ccc(Oc2ccc3c(-c4c(-c5ccccn5)nn5c4CCC5)ccnc3c2)cc1` registered an IC50 in series [1] of 1.2 µM.
In turn, `c1ccc(-c2nn3c(c2-c2ccnc4cc(OCC5CCCO5)ccc24)CCC3)nc1` (stereo not given) returned a permeability in series [4] of 42%. The Stability in series [5] was found to be 55%; in series [6], 97%. For the same molecule, the IC50 in series [1] was 0.13 µM; in series [3], 0.25 µM; in series [2], 0.08 µM.
Consider `COc1cc(OC)c2nccc(-c3c(-c4cccc(C)n4)nn4c3CCC4)c2c1`, for which the figures for the IC50 in series [1], in series [3] and in series [2] were 3.81 µM, more than 20 µM and 7.2 µM, respectively.
